Patent US20120129843A1, “PYRIDYL-THIAZOLYL INHIBITORS OF PRO-MATRIX METALLOPROTEINASE ACTIVATION” (priority 2010, published 2012)
Structures can show the parent of a compound that is named as a salt. Values belong to the compound of their own block, whether it stands above or below them.

Assays:
[1] = target: T1, proMMP9(20-445;ΔFnII) (SEQ ID NO:6) (Homo sapiens, UniProt P14780, DEL216-390); experiment: ThermoFluor binding assay with proMMP9(20-445;ΔFnII)
T1 construct: start methionine (N); made in house; host or cells: E. coli BL21(DE3) RIL
T1 sequence (P14780 with tags, fused parts or gaps DEL216-390): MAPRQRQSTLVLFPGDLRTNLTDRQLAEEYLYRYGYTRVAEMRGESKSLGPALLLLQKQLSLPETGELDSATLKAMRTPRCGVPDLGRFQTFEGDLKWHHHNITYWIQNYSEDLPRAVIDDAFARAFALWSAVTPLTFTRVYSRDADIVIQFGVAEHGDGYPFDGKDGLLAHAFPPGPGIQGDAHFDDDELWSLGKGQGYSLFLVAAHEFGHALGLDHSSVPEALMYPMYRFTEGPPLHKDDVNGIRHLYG
How it was run: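 Thermal-shift binding using 2.8 μM proMMP9(20-445;ΔFnII) with 50 μM 1,8-ANS in 50 mM HEPES pH 7.0, 100 mM NaCl, 0.001% Tween-20, 2.5 mM MgCl2, 300 μM CaCl2. Compound serially diluted; heated 40–90 °C at 1 °C/min, fluorescence 500 nm. Tm shifts fitted using DSC/ThermoFluor-derived thermodynamic parameters.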

[2] = target: T2, proMMP9(67-444;ΔFnII) (SEQ ID NO:5) (Homo sapiens, UniProt P14780, DEL216-390); experiment: ThermoFluor binding assay with proMMP9(67-444;ΔFnII)
T2 construct: start methionine (N); made in house; host or cells: E. coli BL21(DE3) RIL
T2 sequence (P14780 with tags, fused parts or gaps DEL216-390): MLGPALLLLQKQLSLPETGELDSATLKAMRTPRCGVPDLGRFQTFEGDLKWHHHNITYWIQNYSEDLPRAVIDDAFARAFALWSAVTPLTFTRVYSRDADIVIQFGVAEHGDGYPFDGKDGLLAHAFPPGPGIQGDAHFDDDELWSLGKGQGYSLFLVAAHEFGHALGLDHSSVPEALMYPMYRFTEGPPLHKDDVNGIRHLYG
How it was run: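 Thermal shift with 3.5 μM desalted proMMP9(67-444;ΔFnII) and 50 μM 1,8-ANS in 50 mM HEPES pH 7.0, 100 mM NaCl, 0.001% Tween-20, 2.5 mM MgCl2, 300 μM CaCl2; compounds serially diluted. Heated 40–90 °C at 1 °C/min, fluorescence at 500 nm; Tm fit, binding modelled using DSC-derived thermodynamic parameters.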

[3] = target: T3, proMMP13(1-268) (SEQ ID NO:7) (Homo sapiens, UniProt P45452); experiment: ThermoFluor binding assay with proMMP13(1-268)
T3 construct: 6xHis (C); made in house; host or cells: HEK293 (transient, secreted)
Description: The ThermoFluor® (TF) assay is a 384-well plate-based binding assay that measures thermal stability of proteins (Biomol Screen 2001, 6, 429-40; Biochemistry 2005, 44, 5258-66). The experiments were carried out using instruments available from Johnson & Johnson Pharmaceutical Research & Development, LLC. TF dye used in all experiments was […] (1,8-ANS) (Invitrogen: A-47).
Compounds were arranged in a pre-dispensed plate (Greiner Bio-one: 781280), wherein compounds were serially diluted in 100% DMSO across 11 columns within a series. Columns 12 and 24 were used as DMSO reference and contained no compound. For multiple compound concentration-response experiments, the compound aliquots ([…]) were robotically predispensed directly into black 384-well polypropylene PCR microplates (Abgene: TF-0384/k) using a Cartesian Hummingbird liquid handler (DigiLab, Holliston, Mass.). Following compound dispense, protein and dye solutions were added to achieve the final assay volume of 3 μL. The assay solutions were overlayed with 1 μL of silicone oil (Fluka, type DC 200: 85411) to prevent evaporation.
Assay plates were robotically loaded onto a thermostatically controlled PCR-type thermal block and then heated from 40 to 90° C. at a ramp-rate of 1° C./min for all experiments. Fluorescence was measured by continuous illumination with UV light (Hamamatsu LC6) supplied via fiber optics and filtered through a band-pass filter (380-400 nm; >60D cutoff). Fluorescence emission of the entire 384-well plate was detected by measuring light intensity using a CCD camera (Sensys, Roper Scientific) filtered to detect 500±25 nm, resulting in simultaneous and independent readings of all 384 wells. A single image with 20-sec exposure time was collected at each temperature, and the sum of the pixel intensity in a given area of the assay plate was recorded vs temperature and fit to standard equations to yield the Tm (J Biomol Screen 2001, 6, 429-40).
Thermodynamic parameters necessary for fitting compound binding for each proMMP were estimated by differential scanning calorimetry (DSC) and from ThermoFluor® data. The heat capacity of unfolding for each protein was estimated from the molecular weight and from ThermoFluor® dosing data.
ThermoFluor® with proMMP13(1-268) (SEQ ID NO: 7)
The proMMP13(1-268) (SEQ ID NO:7) protein sample preparations included a desalting buffer exchange step via a PD-10 gravity column (GE Healthcare). The desalting buffer exchange was performed prior to diluting the protein to the final assay concentration of 3.5 μM. The concentration of proMMP13(1-268) (SEQ ID NO:7) was estimated spectrophotometrically based on a calculated extinction coefficient of ε280=37000 M^−1cm^−1, a calculated molecular weight of 30.8 kDa, and calculated pI of 5.33. ThermoFluor® reference conditions were defined as follows: 100 μg/mL proMMP13(1-268) (SEQ ID NO:7), 25 μM 1,8-ANS, pH 7.0 Buffer (50 mM HEPES pH 7.0, 100 mM NaCl, 0.001% Tween-20, 2.5 mM MgCl2, 300 μM CaCl2). The thermodynamic parameters for proMMP13(1-268) (SEQ ID NO:7) are as follows: Tm (° C.)=67 (+/−0.1), ΔUH(Tm) (cal mol^−1)=107000(+/−5000), ΔUS(Tm) (cal mol^−1 K^−1)=318, ΔUCp (cal mol^−1 K^−1)=2600.

[4] = target: T4, full-length proMMP9(1-707) (SEQ ID NO:1), activation by catalytic MMP3 (Homo sapiens, UniProt P14780, R574P); experiment: proMMP9/MMP3 P126 Activation Assay; assay type: biochemical
T4 construct: made in house; host or cells: HEK293 (proMMP9, secreted); E. coli (MMP3)
T4 sequence (P14780 20-707 R574P): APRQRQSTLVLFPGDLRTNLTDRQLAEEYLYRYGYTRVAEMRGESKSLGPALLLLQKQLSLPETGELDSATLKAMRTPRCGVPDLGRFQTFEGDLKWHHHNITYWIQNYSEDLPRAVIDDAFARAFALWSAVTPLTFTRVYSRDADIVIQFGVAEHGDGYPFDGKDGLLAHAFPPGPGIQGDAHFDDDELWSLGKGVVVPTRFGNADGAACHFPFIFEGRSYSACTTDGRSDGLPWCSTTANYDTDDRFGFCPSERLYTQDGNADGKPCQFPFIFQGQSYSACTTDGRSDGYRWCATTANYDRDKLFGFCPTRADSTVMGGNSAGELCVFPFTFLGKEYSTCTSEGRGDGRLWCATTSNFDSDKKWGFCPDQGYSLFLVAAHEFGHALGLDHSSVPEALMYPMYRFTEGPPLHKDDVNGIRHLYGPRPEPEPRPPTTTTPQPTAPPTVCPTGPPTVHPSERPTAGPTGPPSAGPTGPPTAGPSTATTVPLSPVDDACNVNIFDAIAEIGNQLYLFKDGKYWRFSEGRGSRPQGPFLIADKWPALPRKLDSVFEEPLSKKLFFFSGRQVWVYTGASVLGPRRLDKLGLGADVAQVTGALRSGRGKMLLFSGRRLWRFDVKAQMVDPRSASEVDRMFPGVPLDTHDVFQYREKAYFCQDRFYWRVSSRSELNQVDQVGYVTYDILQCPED
Description: proMMP9/MMP3 P126 Activation Assay
The reaction volume was 50 μL. […] Reactivity of residual MMP3 towards P-126 substrate was minimal under these conditions.

SMILES: CC(C)Oc1ccc(C(N)=O)cc1Nc1nc(-c2cccnc2)cs1 [Example 1, 4-Isopropoxy-3-(4-pyridin-3-yl-thiazol-2-ylamino)-benzamide.HBr]
Kd [1]: 0.16 µM
Kd [2]: 1 µM
Kd [3]: 0.31 µM
IC50 [4]: 0.36 µM

SMILES: CCOc1ccc(C(N)=O)cc1Nc1nc(-c2cccnc2)cs1 [Example 2, 4-Ethoxy-3-(4-pyridin-3-yl-thiazol-2-ylamino)-benzamide.TFA]
Kd [1]: 0.73 µM
Kd [2]: 1.5 µM
Kd [3]: 2.6 µM
IC50 [4]: 0.74 µM

SMILES: Cc1cc2cccc(Nc3nc(-c4cccnc4)cs3)c2o1 [Example 3, (2-Methyl-benzofuran-7-yl)-(4-pyridin-3-yl-thiazol-2-yl)-amine]
Kd [1]: 33 µM
Kd [2]: 38 µM
Kd [3]: > 95 µM
IC50 [4]: ~5 µM

SMILES: COc1ccc(C(N)=O)cc1Nc1nc(-c2cccnc2)cs1 [Example 4, 4-Methoxy-3-(4-pyridin-3-yl-thiazol-2-ylamino)-benzamide.HBr]
Kd [1]: 1.3 µM
Kd [2]: 3.3 µM
Kd [3]: 12 µM
IC50 [4]: 5 µM

SMILES: COc1ccc(CC(N)=O)cc1Nc1nc(-c2cccnc2)cs1 [Example 5, 2-[4-Methoxy-3-(4-pyridin-3-yl-thiazol-2-ylamino)-phenyl]-acetamide]
Kd [1]: 53 µM
Kd [2]: 33 µM
Kd [3]: > 95 µM
IC50 [4]: ~19 µM

SMILES: COc1ccc(C#N)cc1Nc1nc(-c2cccnc2)cs1 [Example 9, 4-Methoxy-3-(4-pyridin-3-yl-thiazol-2-ylamino)-benzonitrile.HBr]
Kd [1]: 7.4 µM
Kd [2]: 43 µM
Kd [3]: 18 µM
IC50 [4]: 2.6 µM

SMILES: COc1ccc(S(N)(=O)=O)cc1Nc1nc(-c2cccnc2)cs1 [Example 12, 4-Methoxy-3-(4-pyridin-3-yl-thiazol-2-ylamino)-benzenesulfonamide.TFA]
Kd [1]: 17 µM
Kd [2]: 29 µM
Kd [3]: > 95 µM
IC50 [4]: > 20 µM

SMILES: CC(C)Oc1ccc(S(N)(=O)=O)cc1Nc1nc(-c2cccnc2)cs1 [Example 13, 4-Isopropoxy-3-(4-pyridin-3-yl-thiazol-2-ylamino)-benzenesulfonamide.TFA]
Kd [1]: 2.3 µM
Kd [2]: 10 µM
Kd [3]: 1.2 µM
IC50 [4]: 2.4 µM

SMILES: CC(C)Oc1ccc(C(N)=O)cc1Nc1nc(-c2ccccn2)cs1 [Example 14, 4-Isopropoxy-3-(4-pyridin-2-yl-thiazol-2-ylamino)-benzamide]
Kd [1]: 0.21 µM
Kd [2]: 1.9 µM
Kd [3]: 0.93 µM
IC50 [4]: 0.5 µM

SMILES: CC(C)Oc1ccc(C(N)=O)cc1Nc1nc(-c2ccncc2)cs1 [Example 15, 4-Isopropoxy-3-(4-pyridin-4-yl-thiazol-2-ylamino)-benzamide.HBr]
Kd [1]: 0.25 µM
Kd [2]: 0.47 µM
Kd [3]: 0.73 µM
IC50 [4]: 0.28 µM

Second part, the compound after the results:

Kd [1]: 3.6 µM
Kd [2]: 5.7 µM
Kd [3]: 1.5 µM
IC50 [4]: 4.3 µM
SMILES: CC(C)Oc1ccc(C(=O)O)cc1Nc1nc(-c2cccnc2)cs1 [Example 17, 4-Isopropoxy-3-(4-pyridin-3-yl-thiazol-2-ylamino)-benzoic acid.TFA]

Kd [1]: 26 µM
Kd [2]: 0.66 µM
Kd [3]: 3.3 µM
IC50 [4]: 0.67 µM
SMILES: CCOc1ccc(-c2ncco2)cc1Nc1nc(-c2cccnc2)cs1 [Example 18, (2-Ethoxy-5-oxazol-2-yl-phenyl)-(4-pyridin-3-yl-thiazol-2-yl)-amine.HBr]

Kd [1]: 27 µM
Kd [2]: 14 µM
Kd [3]: 6.2 µM
IC50 [4]: ~4 µM
SMILES: Cc1cc(C)c(-c2csc(Nc3cc(C(N)=O)ccc3OC(C)C)n2)c(C)n1 [Example 19, 4-Isopropoxy-3-[4-(2,4,6-trimethyl-pyridin-3-yl)-thiazol-2-ylamino]-benzamide.TFA]

Kd [1]: 0.34 µM
Kd [2]: 3.3 µM
Kd [3]: 0.23 µM
IC50 [4]: 0.64 µM
SMILES: CC(C)Oc1ccc(C(N)=O)cc1Nc1nc(-c2ccc(Br)nc2)cs1 [Example 20, 4-Isopropoxy-3-[4-(6-bromo-pyridin-3-yl)-thiazol-2-ylamino]-benzamide.TFA]

Kd [1]: 0.21 µM
Kd [2]: 4.1 µM
Kd [3]: 1.4 µM
IC50 [4]: 0.6 µM
SMILES: CC(C)Oc1ccc(C(N)=O)cc1Nc1nc(-c2ccnc(Cl)c2)cs1 [Example 21, 3-[4-(2-Chloro-pyridin-4-yl)-thiazol-2-ylamino]-4-isopropoxy-benzamide.TFA]

Kd [1]: 1.3 µM
Kd [2]: 5.7 µM
Kd [3]: 2.9 µM
IC50 [4]: 4.6 µM
SMILES: CC(C)Oc1ccc(C(N)=O)cc1Nc1nc(-c2cncc(Br)c2)cs1 [Example 22, 3-[4-(5-Bromo-pyridin-3-yl)-thiazol-2-ylamino]-4-isopropoxy-benzamide.TFA]

Kd [1]: 11 µM
Kd [2]: 18 µM
Kd [3]: 12 µM
IC50 [4]: ~14 µM
SMILES: CC(C)Oc1ccc(C(N)=O)cc1Nc1nc(-c2cnccc2C(C)C)cs1 [Example 23, 4-Isopropoxy-3-[4-(4-isopropyl-pyridin-3-yl)-thiazol-2-ylamino]-benzamide.TFA]

Kd [1]: 2.2 µM
Kd [2]: > 95 µM
Kd [3]: 3.7 µM
IC50 [4]: ~3 µM
SMILES: Cc1nc(C(F)(F)F)ccc1-c1csc(Nc2cc(C(N)=O)ccc2OC(C)C)n1 [Example 24, 4-Isopropoxy-3-[4-(2-methyl-6-trifluoromethyl-pyridin-3-yl)-thiazol-2-ylamino]-benzamide.TFA]

Kd [1]: 0.17 µM
Kd [2]: 2 µM
Kd [3]: 1.8 µM
IC50 [4]: 0.46 µM
SMILES: COc1ccc(-c2csc(Nc3cc(C(N)=O)ccc3OC(C)C)n2)cn1 [Example 25, 4-Isopropoxy-3-[4-(6-methoxy-pyridin-3-yl)-thiazol-2-ylamino]-benzamide.TFA]

Kd [1]: 36 µM
Kd [3]: > 95 µM
IC50 [4]: > 20 µM
SMILES: NS(=O)(=O)c1ccc(OC(F)(F)F)c(Nc2nc(-c3cccnc3)cs2)c1 [Example 59, 3-(4-Pyridin-3-yl-thiazol-2-ylamino)-4-trifluoromethoxy-benzenesulfonamide]
